Patent US9346812B2, “Substituted pyrrolopyrimidine compounds, compositions thereof, and methods of treatment therewith” (Signal Pharmaceutical LLC, priority 2013, dated 2016)

system: CAL51 cell proliferation; experiment: Cell Titer Glo Proliferation Assay (CAL51); assay type: cell-based, human; conditions: Homo sapiens, CAL-51, 72 h, read-out: Act. Level
Method: Cell Titer Glo Proliferation Assay. Triple negative breast cancer cell line CAL51 was purchased from DSMZ. […] Allcell lines were maintained in growth media consisting of 90% high glucose Dulbecco's Modified Eagle Medium or RPMI1640 (Invitrogen), 10% fetal bovine serum (Hyclone), and 2 mM L-glutamine (Invitrogen). […] After overnight culture, compound stock (30 mM) was diluted serially in DMSO, further diluted in growth media, and was added to each well as a 10× concentrated solution in a volume of 11 μL, mixed, and allowed to incubate with cells. The compound vehicle (DMSO) was maintained at a final concentration of 0.2% in all wells. After 72 h, 100 μL of Cell Titer Glo solution (Promega) was added to each well of the 96-well plate. The plate was placed on a shaker for 2 minutes. After 10 minutes incubation, the luminescence signal was detected with Envision microplate reader (Perkin Elmer).

`CNC(=O)c1ccc(Nc2nc(OC3CCCC3)c3c(-c4ccc(O)cc4)c[nH]c3n2)cc1` [Example 1, 4-(4-(cyclopentyloxy)-5-(4-hydroxyphenyl)-7H-pyrrolo[2,3-d]pyrimidin-2-ylamino)-N-methylbenzamide] was tested, and the IC50 was under 100 nM.

same assay, conditions: Homo sapiens, CAL-51; CAL51 cell proliferation, 72 h, Cell Titer Glo luminescence; read-out: Act. Level

`CNC(=O)c1ccc(Nc2nc(OC3CCCC3)c3c(-c4ccc(O)cc4)c[nH]c3n2)c(C)c1` [Example 9] and `CNC(=O)c1ccc(Nc2nc(OC3CCCC3)c3c(-c4ccc(O)cc4)c[nH]c3n2)c(F)c1` [Example 15, 4-(4-(cyclopentyloxy)-5-(4-hydroxyphenyl)-7H-pyrrolo[2,3-d]pyrimidin-2-ylamino)-3-fluoro-N-methylbenzamide] cannot be ordered by IC50: under 100 nM for the first, under 100 nM for the second.

First: CNC(=O)c1ccc(Nc2nc(OC3CCCC3)c3c(-c4ccc(CO)cc4)c[nH]c3n2)c(OC)c1 [Example 23, 4-(4-(cyclopentyloxy)-5-(4-(hydroxymethyl)phenyl)-7H-pyrrolo[2,3-d]pyrimidin-2-ylamino)-3-methoxy-N-methylbenzamide]
Second: CNC(=O)c1ccc(Nc2nc(OC3CCCC3)c3c(-c4ccc(N)cc4)c[nH]c3n2)c(OC)c1 [Example 37, 4-(5-(4-aminophenyl)-4-(cyclopentyloxy)-7H-pyrrolo[2,3-d]pyrimidin-2-ylamino)-3-methoxy-N-methylbenzamide]
The IC50 of the first is higher: 100 to 400 nM for the first, under 100 nM for the second. The second is the more potent here.

`CNC(=O)c1ccc(Nc2nc(OC3CCCC3)c3c(-c4ccc(O)c(Cl)c4)c[nH]c3n2)c(OC)c1` [Example 24, 4-(5-(3-chloro-4-hydroxyphenyl)-4-(cyclopentyloxy)-7H-pyrrolo[2,3-d]pyrimidin-2-ylamino)-3-methoxy-N-methylbenzamide] and `CNC(=O)c1ccc(Nc2nc(OC3CCCC3)c3c(-c4ccc(O)c(F)c4)c[nH]c3n2)c(OC)c1` [Example 42, 4-(4-(cyclopentyloxy)-5-(3-fluoro-4-hydroxyphenyl)-7H-pyrrolo[2,3-d]pyrimidin-2-ylamino)-3-methoxy-N-methylbenzamide] cannot be ordered by IC50: under 100 nM for the first, under 100 nM for the second.

Compared with `CNC(=O)c1ccc(Nc2nc(OC3CCCC3)c3c(-c4ccc5cn[nH]c5c4)c[nH]c3n2)c(OC)c1` [Example 25, 4-(4-(cyclopentyloxy)-5-(1H-indazol-6-yl)-7H-pyrrolo[2,3-d]pyrimidin-2-ylamino)-3-methoxy-N-methylbenzamide], `CNC(=O)c1ccc(Nc2nc(OC3CCCC3)c3c(-c4ccc5nn[nH]c5c4)c[nH]c3n2)c(OC)c1` [Example 27, 4-(5-(1H-benzo[d][1,2,3]triazol-6-yl)-4-(cyclopentyloxy)-7H-pyrrolo [2,3-d]pyrimidin-2-ylamino)-3-methoxy-N-methylbenzamide] is lower in IC50: 100 to 400 nM for the first, under 100 nM for the second.

Compared with `CNC(=O)c1ccc(Nc2nc(OC3CCCC3)c3c(-c4cccc(CO)c4)c[nH]c3n2)c(OC)c1` [Example 26, 4-(4-(cyclopentyloxy)-5-(3-(hydroxymethyl)phenyl)-7H-pyrrolo[2,3-d]pyrimidin-2-ylamino)-3-methoxy-N-methylbenzamide], `CNC(=O)c1ccc(Nc2nc(OC3CCCC3)c3c(-c4cccc(C(C)(C)O)c4)c[nH]c3n2)c(OC)c1` [Example 47, 4-(4-(cyclopentyloxy)-5-(3-(2-hydroxypropan-2-yl)phenyl)-7H-pyrrolo[2,3-d]pyrimidin-2-ylamino)-3-methoxy-N-methylbenzamide] is higher in IC50: under 100 nM for the first, 400 to 1000 nM for the second. The first is the more potent here.

`CNC(=O)c1ccc(Nc2nc(OC3CCCC3)c3c(-c4ccc(-c5nnc[nH]5)cc4)c[nH]c3n2)c(OC)c1` [Example 28, 4-(5-(4-(4H-1,2,4-triazol-3-yl)phenyl)-4-(cyclopentyloxy)-7H-pyrrolo[2,3-d]pyrimidin-2-ylamino)-3-methoxy-N-methylbenzamide] and `CNC(=O)c1ccc(Nc2nc(OC3CCCC3)c3c(-c4ccc(-c5ncc[nH]5)cc4)c[nH]c3n2)c(OC)c1` [Example 48, 4-(5-(4-(1H-imidazol-2-yl)phenyl)-4-(cyclopentyloxy)-7H-pyrrolo[2,3-d]pyrimidin-2-ylamino)-3-methoxy-N-methylbenzamide] cannot be ordered by IC50: under 100 nM for the first, under 100 nM for the second.

`CNC(=O)c1ccc(Nc2nc(OC3CCOCC3)c3c(-c4ccc(O)cc4)c[nH]c3n2)c(Cl)c1` [Example 29, 3-chloro-4-(5-(4-hydroxyphenyl)-4-(tetrahydro-2H-pyran-4-yloxy)-7H-pyrrolo[2,3-d]pyrimidin-2-ylamino)-N-methylbenzamide] and `CNC(=O)c1ccc(Nc2nc(NC3CCOCC3)c3c(-c4ccc(O)cc4)c[nH]c3n2)c(OC)c1` [Example 40, 4-(5-(4-hydroxyphenyl)-4-(tetrahydro-2H-pyran-4-ylamino)-7H-pyrrolo[2,3-d]pyrimidin-2-ylamino)-3-methoxy-N-methylbenzamide] cannot be ordered by IC50: under 100 nM for the first, under 100 nM for the second.

`CNC(=O)c1ccc(Nc2nc(OC3CCCC3)c3c(-c4ccc5nc[nH]c5c4)c[nH]c3n2)c(OC)c1` [Example 30, 4-(5-(1H-benzo[d]imidazol-6-yl)-4-(cyclopentyloxy)-7H-pyrrolo[2,3-d]pyrimidin-2-ylamino)-3-methoxy-N-methylbenzamide] and `CNC(=O)c1ccc(Nc2nc(OC3CCCC3)c3c(-c4ccc(O)c(C)c4)c[nH]c3n2)c(OC)c1` [Example 43, 4-(4-(cyclopentyloxy)-5-(4-hydroxy-3-methylphenyl)-7H-pyrrolo[2,3-d]pyrimidin-2-ylamino)-3-methoxy-N-methylbenzamide] cannot be ordered by IC50: under 100 nM for the first, under 100 nM for the second.

`COc1cc(C(=O)N(C)C)ccc1Nc1nc(OC2CCCC2)c2c(-c3ccc(O)cc3)c[nH]c2n1` [Example 31, 4-(4-(cyclopentyloxy)-5-(4-hydroxyphenyl)-7H-pyrrolo[2,3-d]pyrimidin-2-ylamino)-3-methoxy-N,N-dimethylbenzamide] and `COc1cc(C(N)=O)ccc1Nc1nc(OC2CCCC2)c2c(-c3ccc(O)cc3)c[nH]c2n1` [Example 44, 4-(4-(cyclopentyloxy)-5-(4-hydroxyphenyl)-7H-pyrrolo[2,3-d]pyrimidin-2-ylamino)-3-methoxybenzamide] cannot be ordered by IC50: under 100 nM for the first, under 100 nM for the second.

`CNC(=O)c1ccc(Nc2nc(OC3CCCC3)c3c(-c4ccc(NS(C)(=O)=O)cc4)c[nH]c3n2)c(OC)c1` [Example 32, 4-(4-(cyclopentyloxy)-5-(4-(methylsulfonamido)phenyl)-7H-pyrrolo[2,3-d]pyrimidin-2-ylamino)-3-methoxy-N-methylbenzamide] and `CNC(=O)c1ccc(Nc2nc(OC3CCCC3)c3c(-c4ccc(NC(N)=O)cc4)c[nH]c3n2)c(OC)c1` [Example 39, 4-(4-(cyclopentyloxy)-5-(4-ureidophenyl)-7H-pyrrolo[2,3-d]pyrimidin-2-ylamino)-3-methoxy-N-methylbenzamide] cannot be ordered by IC50: under 100 nM for the first, under 100 nM for the second.

First: CNC(=O)c1ccc(Nc2nc(OC3CCCC3)c3c(-c4ccc(O)c(C#N)c4)c[nH]c3n2)c(OC)c1 [Example 33, 4-(5-(3-cyano-4-hydroxyphenyl)-4-(cyclopentyloxy)-7H-pyrrolo[2,3-d]pyrimidin-2-ylamino)-3-methoxy-N-methylbenzamide]
Second: CNC(=O)c1ccc(Nc2nc(OC3CCCC3)c3c(-c4ccc5oc(C)nc5c4)c[nH]c3n2)c(OC)c1 [Example 35, 4-(4-(cyclopentyloxy)-5-(2-methylbenzo[d]oxazol-5-yl)-7H-pyrrolo[2,3-d]pyrimidin-2-ylamino)-3-methoxy-N-methylbenzamide]
The IC50 of the first is lower: under 100 nM for the first, 1000 to 10000 nM for the second.

`CNC(=O)c1ccc(Nc2nc(OC3CCCC3)c3c(-c4cncc(OC)c4)c[nH]c3n2)c(Cl)c1` [Example 34, 3-chloro-4-(4-(cyclopentyloxy)-5-(5-methoxypyridin-3-yl)-7H-pyrrolo [2,3-d]pyrimidin-2-ylamino)-N-methylbenzamide] and `CNC(=O)c1ccc(Nc2nc(OC3CCCC3)c3c(-c4ccc(C(C)(C)O)cc4)c[nH]c3n2)c(OC)c1` [Example 49, 4-(4-(cyclopentyloxy)-5-(4-(2-hydroxypropan-2-yl)phenyl)-7H-pyrrolo[2,3-d]pyrimidin-2-ylamino)-3-methoxy-N-methylbenzamide] fall in the same range of IC50: 100 to 400 nM for the first, 100 to 400 nM for the second.

`CNC(=O)c1ccc(Nc2nc(NC3CCCCC3)c3c(-c4ccc(O)cc4)c[nH]c3n2)c(OC)c1` [Example 36, 4-(4-(cyclohexylamino)-5-(4-hydroxyphenyl)-7H-pyrrolo[2,3-d]pyrimidin-2-ylamino)-3-methoxy-N-methylbenzamide] and `CNC(=O)c1ccc(Nc2nc(O[C@H]3CC[C@H](O)CC3)c3c(-c4ccc(O)cc4)c[nH]c3n2)c(OC)c1` [Example 45, 4-(4-((1r,4R)-4-hydroxycyclo-hexyloxy)-5-(4-hydroxyphenyl)-7H-pyrrolo[2,3-d]pyrimidin-2-ylamino)-3-methoxy-N-methylbenzamide] cannot be ordered by IC50: under 100 nM for the first, under 100 nM for the second.

First: CNC(=O)c1ccc(Nc2nc(OC3CCCC3)c3c(-c4ccc(-c5ccn[nH]5)cc4)c[nH]c3n2)c(OC)c1 [Example 41, 4-(5-(4-(1H-pyrazol-5-yl)phenyl)-4-(cyclopentyloxy)-7H-pyrrolo[2,3-d]pyrimidin-2-ylamino)-3-methoxy-N-methylbenzamide]
Second: COc1cc(-c2cn[nH]c2)ccc1Nc1nc(OC2CCCC2)c2c(-c3ccc(O)cc3)c[nH]c2n1 [Example 50, 4-(4-(cyclopentyloxy)-2-(2-methoxy-4-(1H-pyrazol-4-yl)phenylamino)-7H-pyrrolo[2,3-d]pyrimidin-5-yl) phenol]
The IC50 of the first is higher: 100 to 400 nM for the first, under 100 nM for the second. The second is the more potent here.

`CNC(=O)c1ccc(Nc2nc(O[C@H]3CC[C@@H](O)CC3)c3c(-c4ccc(O)cc4)c[nH]c3n2)c(OC)c1` [Example 46, 4-(4-((1s,4s)-4-hydroxycyclo-hexyloxy)-5-(4-hydroxyphenyl)-7H-pyrrolo[2,3-d]pyrimidin-2-ylamino)-3-methoxy-N-methylbenzamide] was tested, and the IC50 was under 100 nM.
